Test results published in US20060058320A1, “[1,2,4] Triazolo[1,5-c]pyrimidine derivatives” (KYOWA HAKKO KOGYO CO., LTD., priority 2002, published 2006).
Where a name gives a salt, the structure may show the parent alone.

Molecular target: T1, adenosine A2A receptor (Rattus norvegicus, UniProt P30543)
T1 construct: from tissue; host or cells: rat corpus striatum membrane preparation
Assay: Adenosine A2A receptor binding test (3H-CGS 21680 binding)
Conditions: read-out: A2A Receptor inhibition rate (%) at 10^−7 mol/L
Description: The test was carried out according to the method of Bruns et al. [Molecular Pharmacology, vol. 29, p.
Rat corpus striatum was suspended in an ice-cold 50 mmol/L tris(hydroxymethyl)aminomethane hydrochloride (referred to as “Tris HCl” hereinafter) buffer (pH 7.7) using a Polytron homogenizer (produced by Kinematica Co.). The suspension was centrifuged (50,000×g, 10 minutes), and the resulting precipitate was again suspended in the same amount of a 50 mmol/L Tris HCl buffer, followed by centrifugation under the same conditions. The resulting finalprecipitate was again suspended in a 50 mmol/L-Tris HCl buffer [containing 10 mmol/L of magnesium chloride and 0.02 unit/mg tissue of adenosine deaminase (produced by Sigma Co.)] so that the tissue concentration was 5 mg (wet weight)/mL.
The radioactivity on the filter was determined with a liquid scintillation counter (produced by Packard Instrument Co.).
In the equation, X represents Amount of binding in the presence of a medicament, Y represents Amount of nonspecific binding, and Z represents Amount of total binding.

T1 sequence (P30543 whole entry): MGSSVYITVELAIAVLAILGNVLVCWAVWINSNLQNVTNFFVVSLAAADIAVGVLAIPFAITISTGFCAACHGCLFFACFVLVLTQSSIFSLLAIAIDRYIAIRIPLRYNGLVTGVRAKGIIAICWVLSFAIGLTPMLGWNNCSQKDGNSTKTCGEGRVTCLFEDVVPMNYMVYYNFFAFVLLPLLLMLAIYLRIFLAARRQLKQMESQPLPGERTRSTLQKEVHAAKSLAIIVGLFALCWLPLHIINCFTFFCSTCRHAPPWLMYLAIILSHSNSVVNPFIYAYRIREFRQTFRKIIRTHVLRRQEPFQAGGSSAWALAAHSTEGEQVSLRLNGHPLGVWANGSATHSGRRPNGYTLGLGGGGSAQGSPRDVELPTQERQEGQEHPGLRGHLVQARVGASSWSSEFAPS

| Compound | inhibition at 0.1 µM [%] |
| --- | --- |
| CC1CCCN(C(=O)c2cc3nc(-c4ccco4)nn3c(N)n2)C1 (centres unmarked) [Compound 145, 5-Amino-2-(2-furyl)[1,2,4]triazolo[1,5-c]pyrimidin-7-yl 3-methylpiperidino ketone] | 60 |

Same assay, conditions: test compound 10^−7 mol/L; 3H-CGS 21680 binding, rat corpus striatum

| Compound | A2A Receptor inhibition rate (%) at 10^−7 mol/L [%] |
| --- | --- |
| 5-Amino-2-(2-furyl)-7-(2-phenylthienyl)[1,2,4]triazolo[1,5-c]pyrimidine [Compound 65] | 96 |
| Nc1nc(C(=O)N2CCCC2)cc2nc(-c3ccco3)nn12 [Compound 148, 5-Amino-2-(2-furyl)[1,2,4]triazolo[1,5-c]pyrimidin-7-yl pyrrolidinyl ketone] | 75 |

Same assay, conditions: test compound 10^−7 mol/L; 3H-CGS 21680 binding, rat corpus striatum; read-out: A2A Receptor inhibition rate (%) at 10^−7 mol/L

| Compound | inhibition at 0.1 µM [%] |
| --- | --- |
| CC(=O)NCCNCc1ccc(-c2cc3nc(-c4ccco4)nn3c(N)n2)cc1 [Compound 16, 7-{4-[2-(N-acetylamino)ethylaminomethyl]phenyl}-5-amino-2-(2-furyl)[1,2,4]triazolo[1,5-c]pyrimidine monohydrochloride] | 36 |
| COc1cc(CNCc2ccc(-c3cc4nc(-c5ccco5)nn4c(N)n3)cc2)cc(OC)c1 [Compound 17, 5-Amino-7-[4-(3,5-dimethoxybenzylaminomethyl)phenyl]-2-(2-furyl)[1,2,4]triazolo[1,5-c]pyrimidine monohydrochloride] | 70 |
| COC(C)(C)c1cc2nc(-c3ccco3)nn2c(N)n1 [Compound 25, 5-Amino-2-(2-furyl)-7-(1-methyl-1-methoxyethyl)[1,2,4]-triazolo[1,5-c]pyrimidine] | 47 |

Other lines, results leading:

| inhibition at 0.1 µM [%] | Compound |
| --- | --- |
| 60 | Cc1ncccc1CN(C)C(=O)c1cc2nc(-c3ccco3)nn2c(N)n1 [Compound 134, 5-Amino-2-(2-furyl)[1,2,4]triazolo[1,5-c]pyrimidine-7-carboxylic acid [N-methyl-N-(2-methylpyridin-3-ylmethyl)]-amide] |
| 62 | COc1ccc(CNCc2cc3nc(-c4ccco4)nn3c(N)n2)cc1OC [Compound 42, 5-Amino-7-(3,4-dimethoxybenzylaminomethyl)-2-(2-furyl)-[1,2,4]triazolo[1,5-c]pyrimidine dihydrochloride] |
| 59 | CN(Cc1cccnc1Cl)C(=O)c1cc2nc(-c3ccco3)nn2c(N)n1 [Compound 128, 5-Amino-2-(2-furyl)[1,2,4]triazolo[1,5-c]pyrimidine-7-carboxylic acid [N-(2-chloropyridin-3-ylmethyl)-N-methyl]-amide] |
| 60 | COc1cc(CNCc2cc3nc(-c4ccco4)nn3c(N)n2)cc(OC)c1 [Compound 43, 5-Amino-7-[(3,5-dimethoxybenzylamino)methyl]-2-(2-furyl)-[1,2,4]triazolo[1,5-c]pyrimidine dihydrochloride] |
| 96 | Nc1nc(/C=C/CNCC2CC2)cc2nc(-c3ccco3)nn12 [Compound 68, 5-Amino-7-[3-(cyclopropylmethylamino)-(E)-propan-1-en-1-yl]-2-(2-furyl)[1,2,4]triazolo[1,5-c]pyrimidine] |

Test system: not given
Assay: not given
Conditions: not given

| Compound | melting point |
| --- | --- |
| Nc1nc(-c2ccc(C=O)cc2)cc2nc(-c3ccco3)nn12 [Compound 10, 5-Amino-7-(4-formylphenyl)-2-(2-furyl)[1,2,4]triazolo[1,5-c]pyrimidine] | 273.5 to 274 °C |
| COc1cc(CNCc2ccc(-c3cc4nc(-c5ccco5)nn4c(N)n3)cc2)cc(OC)c1 (as salt: hydrochloride) [Compound 17, 5-Amino-7-[4-(3,5-dimethoxybenzylaminomethyl)phenyl]-2-(2-furyl)[1,2,4]triazolo[1,5-c]pyrimidine monohydrochloride] | 224.6 to 225.2 °C |
| Nc1nc(-c2ccc(CNCCCN3CCCC3=O)cc2)cc2nc(-c3ccco3)nn12 (as salt: hydrochloride) [Compound 14, 5-Amino-2-(2-furyl)-7-{4-[3-(2-oxopyrrolidin-1-yl)propylaminomethyl]phenyl}[1,2,4]triazolo[1,5-c]pyrimidine monohydrochloride] | 269.2 to 269.8 °C |
| COCC(C)NCc1ccccc1-c1cc2nc(-c3ccco3)nn2c(N)n1 (racemic) (as salt: hydrochloride) [Compound 9, (±)-5-Amino-2-(2-furyl)-7-[{2-[(2-methoxy-1-methylethyl)aminomethyl]phenyl}(1,2,4]triazolo[1,5-c]pyrimidinemonohydrochloride] | 178.9 to 179.7 °C |
| COc1cc(CNCc2ccccc2-c2cc3nc(-c4ccco4)nn3c(N)n2)cc(OC)c1 (as salt: hydrochloride) | 213.5 to 214.3 °C |
| Nc1nc(C2=CCN(CC(F)(F)F)CC2)cc2nc(-c3ccco3)nn12 | 247.5 to 248.2 °C (dec.) |
| Nc1nc(COc2ccccc2)cc2nc(-c3ccco3)nn12 | 247.2 to 247.4 °C |
| Nc1nc(C2=CCN(CC3CC3)CC2)cc2nc(-c3ccco3)nn12 | 196.9 to 197.4 °C |
| COc1ccc(CNCc2ccc(-c3cc4nc(-c5ccco5)nn4c(N)n3)cc2)cc1OC (as salt: hydrochloride) | 256.2 to 256.8 °C |
| Nc1nc(-c2ccco2)cc2nc(-c3ccco3)nn12 | 250.2 to 250.4 °C |
| CC(C)(O)CN1CC=C(c2cc3nc(-c4ccco4)nn3c(N)n2)CC1 | 197.8 to 198.1 °C |
| CN(C)CCN(Cc1ccccc1)C(=O)c1cc2nc(-c3ccco3)nn2c(N)n1 | 215.2 to 215.4 °C |
| CCN1CCN(Cc2ccccc2-c2cc3nc(-c4ccco4)nn3c(N)n2)CC1 (as salt: hydrochloride) | 253 to 253.4 °C |
| CC(=O)NCCNC(=O)c1cc2nc(-c3ccco3)nn2c(N)n1 | 233.8 to 234 °C |

Now from value to compound:

| melting point | Compound |
| --- | --- |
| 178.5 to 178.9 °C | CCNC(=O)c1cc2nc(-c3ccco3)nn2c(N)n1 [Compound 98, 5-Amino-2-(2-furyl)[1,2,4]triazolo[1,5-c]pyrimidine-7-carboxylic acid ethylamide] |
| > 300 °C | Nc1nc(COc2ccncc2)cc2nc(-c3ccco3)nn12 [Compound 33, 5-Amino-2-(2-furyl)-7-(pyridin-4-yloxymethyl)[1,2,4]-triazolo[1,5-c]pyrimidine] |
| 229.1 to 229.8 °C | Nc1nc(CNCCCN2CCCC2=O)cc2nc(-c3ccco3)nn12 (as salt: hydrochloride) [Compound 47, 5-Amino-2-(2-furyl)-7-[3-(2-oxopyrrolidin-1-yl)propylamino-methyl][1,2,4]triazolo[1,5-c]pyrimidine dihydrochloride] |
| 270 °C (dec.) | Nc1nc(CN2CCN(CC3CC3)CC2)cc2nc(-c3ccco3)nn12 (as salt: hydrochloride) [Compound 50, 5-Amino-7-[4-(cyclopropylmethyl)piperazin-1-ylmethyl]-2-(2-furyl)[1,2,4]triazolo[1,5-c]pyrimidine dihydrochloride] |
| 241.2 to 241.5 °C | COc1ccc(CNCc2cc3nc(-c4ccco4)nn3c(N)n2)cc1OC (as salt: hydrochloride) [Compound 42, 5-Amino-7-(3,4-dimethoxybenzylaminomethyl)-2-(2-furyl)-[1,2,4]triazolo[1,5-c]pyrimidine dihydrochloride] |
| 239.6 to 239.9 °C | Nc1nc(-c2ccc(CO)cc2)cc2nc(-c3ccco3)nn12 [Compound 61, 5-Amino-2-(2-furyl)-7-(4-hydroxymethylphenyl)[1,2,4]-triazolo[1,5-c]pyrimidine] |
| 239.2 to 239.6 °C | Nc1nc(Cn2ccccc2=O)cc2nc(-c3ccco3)nn12 [Compound 37, 5-Amino-2-(2-furyl)-7-(2-oxopyridin-1-ylmethyl)[1,2,4]-triazolo[1,5-c]pyrimidine] |
